In brackets after ≈: the same amount, converted by molar mass.
Experiments:
Assay in all cases: Antifungal susceptibility testing (minimum inhibitory concentration), soyabean casein digest broth
Type in all cases: cell-based
C. albicans = settings: Candida albicans; end points after 48 hours, visually / spectrophotometer; NI till x = no inhibition up to x; read-out: Activity against organisms In μg/ml, C. albicans (minimum inhibitory concentration)
Experimental: (§1) In vitro evaluation of antifungal activity can be performed by determining the minimum inhibitory concentration. Anti-fungal susceptibility testing of these anti-fungal compounds was done by conventional method using soyabean casein digest broth. Known anti-fungal agents like Fluconazole and amphotericin-B were used as positive control. End points were determined after 48 hours visually and by using Spectrophotometer wherever necessary. Different dilutions were tried and the set of experiments.

F. proliferatum = settings: Fusarium proliferatum; end points after 48 hours, visually / spectrophotometer; NI till x = no inhibition up to x; read-out: Activity against organisms In μg/ml, F. proliferatum (minimum inhibitory concentration)
Experimental: as §1

A. niger = settings: Aspergillus niger; end points after 48 hours, visually / spectrophotometer; NI till x = no inhibition up to x; read-out: Activity against organisms In μg/ml, A. niger (minimum inhibitory concentration)
Experimental: as §1

COc1ccc(C2=CC(COC(=O)c3cc(Br)c(Br)s3)OC2=O)cc1Br (stereo not drawn) [FE, 4-(3-bromo-4-methoxyphenyl)-5-oxo-2,5-dihydrofuran-2-ylmethyl 4,5-dibromothiophene-2-carboxylate]
MIC (C. albicans): 4 to 8 µg/mL (≈ 7.05 to 14.1 µM)
MIC (F. proliferatum): > 4 µg/mL
MIC (A. niger): > 4 µg/mL

Source: patent publication US20070259948A1, “Compounds with antifungal properties and process thereof” (priority 2006, published 2007)
